Holding throughout (assay type): cell-based
One assay relates to human β cells. The assay is described as follows: [Ca2+]i imaging (Fura-2) of glucose-responsive human islet cells. The settings on record: for [Ca2+]i response of β cells to the agonist: human β cells identified by response to high glucose (11 or 16 mM), recorded at 3 mM glucose, BzATP 50 μM; for effect on [Ca2+]i responses induced by ATPγS: iso-PPADS, nifedipine 10 μM. The text has this:
(§1) Islet Isolation. Islets were isolated as previously described (57). Monkey islets were isolated from cynomolgus monkeys (Macacca fascicularis) >4 years of age at the time of pancreas procurement, as previously described (58). Pig pancreata were procured from the local slaughterhouse. Mice (C57BL/6) and rat (Lewis rat; Harlan) islets were isolated using a rodent-islet isolation technique (59). All animal protocols were approved by the University of Miami Care and Use Committee. Human pancreatic islets were obtained from the Human Islet Cell Processing Facility at the Diabetes Research Institute, University of Miami Miller School of Medicine or from the Islet Cell Resource basic science islet distribution program, Islet Cell Resource Centers (ICRs) Consortium, Division of Clinical Research, National Center for Research Resources, National Institutes of Health. Human islets were dissociated into single cells using enzyme-free cell dissociation buffer (Invitrogen). Islets and islets cells from Q:1 all species were cultured identically (37° C. and 5% CO2) inCMRL Q:2 medium-1066 (Invitrogen), niacinamide (10 mM; Sigma), ITS (BD Biosciences), Zn2SO4 (15 μM, Sigma), GlutaMAX (2 mM; Invitrogen), Hepes (25 mM; Sigma), FBS (10%; Invitrogen), and penicillinstreptomycin (100 IU/mL-100 μg/mL; Invitrogen).
[Ca^2+]i; Imaging. [Ca^2+]i imaging was performed as previously described (8, 36). Dispersed islet cells were immersed in Hepes-buffered solution (125 mMNaCl, 5.9 mMKCl, 2.56 mMCaCl2, 1 mMMgCl2, 25 mMHepes, and 0.1% BSA, pH7.4). Glucose was added to give a final concentration of 3 mM. Islets or dispersed islet cells were incubated in Fura-2 AM (2 μM; 1 h) and placed in a closed small volume imaging chamber (Warner Instruments). Stimuli were applied with the bathing solution. Islets loaded with Fura-2 were excited alternatively at 340 and 380 nm with a monochromator light source (Cairn Research Optoscan Monochromator; Cairn Research Ltd). Images were acquired with a Hamamatsu camera (Hamamatsu) attached to a Zeiss Axiovert 200 microscope (Carl Zeiss). Changes in the 340/380 fluorescence emission ratio over time were analyzed in individual islets and dispersed cells using Kinetic Imaging AQM Advance software (Kinetic Imaging). Peak changes in the fluorescence ratio constituted the response amplitude. Beta cells were distinguished from other endocrine cells by their [Ca^2+]i, responses to high glucose concentrations, and alpha cells were identified by their [Ca^2+]i responses to kainate (glutamate receptor agonist) (8, 36).

Assay [1] relates to human islets. Kind of assay: Dynamic insulin secretion from perifused human islets kept at constant glucose. The following applies: for insulin secretory response to the agonist at low glucose: 3 mM glucose, ATP 100 μM (or concentration series), ATPγS 50 μM, BzATP 50 μM, α,β-methylene ATP 50 μM, ADP 100 μM, UTP 100 μM, adenosine 100 μM; for effect on basal insulin secretion: low glucose (3 mM), ARL67156 50 μM, apyrase 5 U/mL.
Source text: as §1
(§2) Insulin and Glucagon Secretion. Insulin and glucagon secretion were measured as previously described (8, 36). A high-capacity automated perifusion system was developed to dynamically measure hormone secretion from pancreatic islets. A low pulsatility peristaltic pump pushed Hepes-buffered solution (125 mM NaCl, 5.9 mM KCl, 2.56 mM CaCl2, 1 mM MgCl2, 25 mM Hepes, and 0.1% BSA, pH 7.4 at a perifusion rate of 100 μL/min) through a column containing 100 pancreatic islets immobilized in Bio-Gel P-4 Gel (BioRad). Except when otherwise stated, glucose concentration was adjusted to 3 mM for all experiments. Stimuli were applied with the perifusion buffer. The perifusate was collected in an automatic fraction collector designed for a 96-well plate format. The columns containing the islets and the perifusion solutions were kept at 37° C., and the perifusate in the collecting plate was kept at <4° C. Perifusates were collected every 1 min. Hormone release in the perifusate was determined with the human or mouse Endocrine LINCOplex Kit following manufacturer's instructions (Lincoresearch). Human islet preparations varied considerably in their quality. Thus, the magnitudes of the responses to different stimuli were compared with the same recording or using recordings from the same preparation.

The test system of a further assay is human alpha cells. The assay is described as follows: [Ca2+]i imaging (Fura-2) of kainate-responsive human islet cells. The settings on record: agonist 50 μM; for fraction of kainate-responsive cells that responded with rapid [Ca2+]i increases: human islet cells responding to kainate (100 μM).
In assay [2] the test system is human islets. The assay is described as follows: Glucose-induced insulin secretion (glucose raised from 3 mM to 11 mM) in perifused human islets. The following applies: glucose 3 mM to 11 mM; for effect on glucose-induced insulin secretion: MRS2159 10 μM, Brilliant Blue G 1 μM, KN-62 1 μM, reactive blue 2 50 μM, MRS2179 10 μM, CGS15943 10 μM, adenosine 100 μM; for reduction of glucose-induced insulin release: apyrase 5 U/mL, suramin 50 μM or 100 μM, iso-PPADS 50 μM, oATP 500 μM.
Source text: as §1, §2

Assay [3] relates to human islets. The assay is described as follows: ATP-induced (or α,β meATP-induced) insulin secretion in human islets with antagonists or blockers. The settings on record: ATP 10 μM; for effect on insulin secretion induced by ATP: suramin 100 μM, Cd2+ 100 μM, nifedipine 10 μM, thapsigargin 1 μM.
Source text: as §1, §2

The mark [4] stands for this setting: human β cells, ATPγS 50 μM, thapsigargin 1 μM.

Entries after “also recorded” stand apart in the source; their conditions may differ.

As to 2′(3′)-O-(4-Benzoylbenzoyl)ATP [BzATP], the “[Ca2+]i response of β cells to the agonist” value (“[Ca2+]i response of β cells” for short) in the assay with human β cells (ATPγS 50 μM) was “rapid [Ca^2+]i increases; also recorded: elicited repeatable [Ca^2+]i responses”. Also, the “insulin secretory response to the agonist at low glucose” value (from here on “insulin secretory response”) in the assay on human islets [1] is on record as “elicited insulin secretory responses; also recorded: elicited strong insulin responses”. Further, the “fraction of kainate-responsive cells that responded with rapid [Ca2+]i increases” value in the assay on human alpha cells is 30%.

For the compound `Nc1ncnc2c1ncn2[C@@H]1O[C@H](COP(=O)(O)OP(=O)(O)O)[C@@H](O)[C@H]1O` [ADP], the “insulin secretory response” value in the assay with human islets [1] is “elicited insulin secretory responses; also recorded: increase insulin release”.

On to `CCN(CC)c1ncnc2c1ncn2[C@@H]1O[C@H](COP(=O)(O)OP(=O)(O)C(Br)(Br)P(=O)(O)O)[C@@H](O)[C@H]1O` [ARL67156], for which the “effect on basal insulin secretion” value in the assay with human islets [1] was “increased basal insulin secretion”. The “effect on glucose-induced insulin secretion” value in the assay with human islets [2] is listed as “did not amplify the β-cell response”.

Turning to `Nc1ncnc2c1ncn2[C@@H]1O[C@H](COP(=O)(O)OP(=O)(O)OP(O)(O)=S)[C@@H](O)[C@H]1O` [ATPγS], the “[Ca2+]i response of β cells” value in the assay with human β cells (ATPγS 50 μM) is “rapid [Ca^2+]i increases”; in the assay on human β cells (ATPγS 50 μM, listed as ATP S), “induced [Ca^2+]i responses”. In addition, the “[Ca2+]i responses to the agonist in the nominal absence of extracellular Ca2+” value in the assay on human β cells (human β cells, nominal 0 Ca2+ (+1 mM EGTA), ATPγS 50 μM) is “reduced”. The “insulin secretory response” value in the assay on human islets [1] is reported as “elicited insulin secretory responses; also recorded: elicited strong insulin responses”. Further, in the assay with human alpha cells (human alpha cells identified by kainate (100 μM), 3 mM glucose), the “[Ca2+]i response of alpha cells to the agonist” value is on record as “did not respond to ATP S”. For the same compound, in the assay with human alpha cells, the “fraction of kainate-responsive cells that responded with rapid [Ca2+]i increases” value amounted to 30%.

Regarding `CCOc1ccc(Nc2ccc(/C(=C3C=C/C(=[N+](/CC)Cc4cccc(S(=O)(=O)[O-])c4)C=C/3C)c3ccc(N(CC)Cc4cccc(S(=O)(=O)[O-])c4)cc3C)cc2)cc1.[Na+]` [Brilliant Blue G], in the assay with human islets [2], the “effect on glucose-induced insulin secretion” value is on record as “not significantly reduced”.

Take `CN([C@@H](Cc1ccc(OS(=O)(=O)c2cccc3cnccc23)cc1)C(=O)N1CCN(c2ccccc2)CC1)S(=O)(=O)c1cccc2cnccc12` [KN-62]: the “effect on glucose-induced insulin secretion” value in the assay on human islets [2] was “not significantly reduced”.

`Cc1nc(N=Nc2ccc(C(=O)O)cc2)c(COP(=O)(O)O)c(C=O)c1O` [MRS2159]: the “effect on glucose-induced insulin secretion” value with human islets [2] was “not significantly reduced”.

Regarding `CNc1ncnc2c1ncn2[C@H]1C[C@H](OP(=O)(O)O)[C@@H](COP(=O)(O)O)O1` [MRS2179], the “effect on glucose-induced insulin secretion” value in the assay with human islets [2] is listed as “did not inhibit glucose induced insulin release”.

In the case of `O=c1ccn([C@@H]2O[C@H](COP(=O)(O)OP(=O)(O)OP(=O)(O)O)[C@@H](O)[C@H]2O)c(=O)[nH]1` [UTP], in the assay with human islets [1], the “insulin secretory response” value is “did not evoke strong insulin responses; also recorded: increase insulin release”.

For the compound `Nc1ncnc2c1ncn2[C@@H]1O[C@H](CO)[C@@H](O)[C@H]1O` [adenosine], the “insulin secretory response” value in the assay on human islets [1] is “did not evoke strong insulin responses”; in the assay on human islets [1] (listed as Adenosine) it was “minor effect on insulin release”. In addition, the “effect on glucose-induced insulin secretion” value in the assay with human islets [2] is “neither the P1 receptor antagonist CGS15943 (10 μM) nor adenosine (100 μM) altered glucose-induced insulin secretion”.

One may read the inhibition as the relative decrease from the control value, in per cent. As to `Cc1nc(/N=N/c2cc(S(=O)(=O)O)ccc2S(=O)(=O)O)c(COP(=O)(O)O)c(C=O)c1O` [iso-PPADS], the “block of [Ca2+]i responses to ATP” value in the assay on human β cells (human β cells) worked out at 80%. In the assay on human β cells (setting [4]), the “effect on [Ca2+]i responses induced by ATPγS” value was “reduced [Ca^2+]i responses”. For the same compound, the inhibition at 50 µM with human islets [3] (iso-PPADS 50 μM, read-out: inhibition of insulin responses to ATP) is about 95%. In addition, the “effect on insulin secretion induced by ATP” value with human islets [3] (iso-PPADS 50 μM) is recorded as “inhibited”. The “reduction of glucose-induced insulin release” value (from here on “reduction”) with human islets [2] is 30%.

For the compound `Nc1ncnc2c1ncn2[C@@H](C=O)O[C@@H](C=O)COP(=O)(O)OP(=O)(O)OP(=O)(O)O` [oATP, oxidized ATP], in the assay with human islets [2], the “reduction” value came to 65%.

As to `Nc1c(S(=O)(=O)O)cc(Nc2ccc(Nc3nc(Cl)nc(Nc4cccc(S(=O)(=O)O)c4)n3)c(S(=O)(=O)O)c2)c2c1C(=O)c1ccccc1C2=O` [reactive blue 2], in the assay on human islets [2], the “effect on glucose-induced insulin secretion” value is on record as “did not inhibit glucose induced insulin release”.

With `Cc1ccc(C(=O)Nc2ccc(S(=O)(=O)O)c3cc(S(=O)(=O)O)cc(S(=O)(=O)O)c23)cc1NC(=O)c1cccc(NC(=O)Nc2cccc(C(=O)Nc3cc(C(=O)Nc4ccc(S(=O)(=O)O)c5cc(S(=O)(=O)O)cc(S(=O)(=O)O)c45)ccc3C)c2)c1` [suramin], the “effect on insulin secretion induced by ATP” value with human islets [3] (iso-PPADS 50 μM) is listed as “inhibited”. In addition, the “reduction” value with human islets [2] amounted to 40%.

On to `C/C=C(/C)C(=O)O[C@H]1C(C)=C2[C@H]([C@@H]1OC(=O)CCCCCCC)[C@@](C)(OC(C)=O)C[C@H](OC(=O)CCC)[C@@]1(O)[C@H]2OC(=O)[C@@]1(C)O` [thapsigargin], for which, in the assay on human β cells (setting [4]), the “effect on [Ca2+]i responses induced by ATPγS” value was “not decreased”. Moreover, the “effect on [Ca2+]i responses to ATP” value with human β cells (human β cells, thapsigargin 1 μM, nifedipine) was “did not affect [Ca^2+]i responses to ATP”. The “effect on insulin secretion induced by ATP” value in the assay with human islets [3] (iso-PPADS 50 μM) is “had no effect on insulin responses to ATP”; with human islets [3] (iso-PPADS 50 μM, listed as Thapsigargin), “did not affect insulin responses”.

Turning to `Nc1ncnc2c1ncn2[C@@H]1O[C@H](COP(=O)(O)CP(=O)(O)OP(=O)(O)O)[C@@H](O)[C@H]1O` [α,β-methylene ATP], the “[Ca2+]i response of β cells” value with human β cells (ATPγS 50 μM) is “elicited repeatable [Ca^2+]i responses”. In addition, the “insulin responses to the agonist in the nominal absence of extracellular Ca2+” value in the assay with human islets [3] (nominal 0 Ca2+ (+1 mM EGTA), α,β meATP 100 μM) is listed as “strongly diminished”. Further, the “insulin secretory response” value in the assay with human islets [1] is “elicited strong insulin responses”.

For adenosine deaminase, the “effect of degrading adenosine on the apyrase effect on glucose-stimulated insulin secretion” value in the assay on human islets [2] (ADA 1 U/mL added to apyrase 5 U/mL) is listed as “did not change the effect of apyrase on glucose-stimulated insulin secretion”.

Take apyrase: the “effect on basal insulin secretion” value in the assay with human islets [1] is reported as “did not reduce basal insulin secretion”; with human islets [1] (listed as Apyrase), “did not change basal insulin secretion”. The “reduction” value in the assay on human islets [2] is about 15%.

(Values after patent US20170035793A1, “Use of P2X Purinergic Receptor Agonists to Enhance Insulin Secretion In Pancreatic Beta Cells” (priority 2010, published 2017).)
